Test: Saturation concentration of paclitaxel in various release media (HPLC)
Format: physicochemical
Description: Paclitaxel concentrations were then measured with a Waters 2965 series HPLC (commercially available from Waters Corporation). A 20 μL from each sample was injected into a Phenomenex ODS-2 INERTSIL (5.0 μm, 150 mm×4.6, from Phenomenex) which was maintained at about 30° C. The sample runs were conducted for about 10 minutes, with a flow rate at 0.8 mL/minute. The mobile phase included about 55% acetonitrile and 45% water (v/v). The paclitaxel was detected at a wavelength of about 230 nm with a photodiode array detector (Waters series 2996, commercially available from Waters Corporation).
A release medium, including phosphate buffered saline (PBS) with about 0.1% of a polyethoxylated fatty acid ester of sorbitan (also referred to as polysorbates, commercially available as TWEEN™ 80) (w/v) and about 0.5% sodium dodecylsulfate (SDS) (w/v) was prepared as follows. About 100 mL of 10×PBS concentrate was added to a 1 liter volumetric flask. The flask was filled to the line with Milli-Q water and stirred for about 15 minutes. To the solution, about 1 mL of TWEEN™ 80 was added and stirred with a magnetic stir bar until the TWEEN™ 80 was completely dissolved. Approximately 5 grams of sodium dodecylsulfate was then added and the solution was stirred for about 45 minutes. The pH of the solution was tested and found to be about 7.3.
The saturation concentration of paclitaxel in various release media was determined using the previously mentioned high pressure liquid chromatography method. In addition to the release media including PBS with about 0.1% TWEEN™ 80 and 0.5% Sodium Dodecyl Sulfate described above, other media were similarly tested. The additional media included PBS with about 0.1% by weight PLURAFAC® surfactant (commercially available from BASF), PBS with about 0.1% by weight TWEEN™ 80, and PBS with about 0.8% by weight Dimethyl-b-Cyclodextrin. A summary of the results is provided below in Table 1.

Question: For CC(=O)O[C@H]1C(=O)[C@@]2(C)[C@H]([C@H](OC(=O)c3ccccc3)[C@]3(O)C[C@H](OC(=O)[C@H](O)[C@@H](NC(=O)c4ccccc4)c4ccccc4)C(C)=C1C3(C)C)[C@]1(OC(C)=O)CO[C@@H]1C[C@@H]2O [Paclitaxel, paclitaxel], which “Saturation concentration of Paclitaxel” value (Media: PBS w/0.1% Plurafac) is on record?
Answer: 0.1 ± .01 µg/mL

Question: What about the “Saturation concentration of Paclitaxel” value (Media: PBS w/0.1% TWEEN 80) of the same molecule?
Answer: 2.2 ± 0.2 µg/mL

Question: And the “Saturation concentration of Paclitaxel” value (Media: PBS w/0.1% TWEEN 80 and 0.5% Sodium Dodecyl Sulfate)?
Answer: 52.8 ± 6.4 µg/mL

Question: What about the “Saturation concentration of Paclitaxel” value (Media: PBS w/0.8% Dimethyl-b-Cyclodextrin) of the same molecule?
Answer: 7.3 µg/mL

Reference: US20100076489A1, “WOUND CLOSURE MATERIAL” (priority 2007, published 2010)
